Test results: patent US20260226049A1, “NITROGEN-CONTAINING HETEROCYCLIC COMPOUND, PREPARATION METHOD THEREFOR, AND USE THEREOF” (BIVISION PHARMACEUTICALS, INC, priority 2023, published 2026)

Tests used:
[1] = biological target: T1, recombinant human fibroblast activation protein (FAP) (Homo sapiens, UniProt Q12884); assay: Selective assay, protease inhibition (FAP); assay type: biochemical; settings: substrate Z-Gly-Pro-AMC
T1 sequence (Q12884 1-760): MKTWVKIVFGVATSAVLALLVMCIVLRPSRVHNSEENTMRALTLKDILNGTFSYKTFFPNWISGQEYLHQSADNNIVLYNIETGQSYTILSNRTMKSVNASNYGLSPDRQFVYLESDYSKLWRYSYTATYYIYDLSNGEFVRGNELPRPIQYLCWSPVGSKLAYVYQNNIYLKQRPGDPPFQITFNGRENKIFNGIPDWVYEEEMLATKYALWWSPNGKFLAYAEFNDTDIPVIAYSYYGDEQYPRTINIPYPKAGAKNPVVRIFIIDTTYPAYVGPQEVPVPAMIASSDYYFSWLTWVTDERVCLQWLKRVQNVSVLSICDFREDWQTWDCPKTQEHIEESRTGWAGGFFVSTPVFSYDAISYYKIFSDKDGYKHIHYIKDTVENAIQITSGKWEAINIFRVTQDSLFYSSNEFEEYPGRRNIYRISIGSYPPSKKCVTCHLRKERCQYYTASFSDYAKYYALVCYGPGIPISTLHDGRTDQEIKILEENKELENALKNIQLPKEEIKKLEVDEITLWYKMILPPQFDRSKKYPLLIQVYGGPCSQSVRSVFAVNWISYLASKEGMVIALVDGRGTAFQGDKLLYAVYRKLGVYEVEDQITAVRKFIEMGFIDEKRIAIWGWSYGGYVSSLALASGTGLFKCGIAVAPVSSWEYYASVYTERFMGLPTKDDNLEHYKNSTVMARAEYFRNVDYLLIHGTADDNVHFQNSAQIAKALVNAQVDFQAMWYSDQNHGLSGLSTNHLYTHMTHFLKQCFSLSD
Protocol: The specificity of the synthesized compounds against recombinant human dipeptidyl peptidase IV (DPPIV), fibroblast activation protein (FAP), or prolyl oligopeptidase (PREP) was expressed by their half-maximal inhibitory concentration (IC50) against the proteases.
1) The synthesized compound was dissolved in DMSO to a final concentration of 100 mM.
a) For FAP assay: The test compound was diluted to a 1 mM solution using a buffer of 50 mM Tris, 140 mM NaCl at pH 7.5.
2) The prepared 1 mM test compound solution was serially diluted (1:10) into a row of a 96-well plate using the corresponding buffer mentioned above.
3) The substrate was prepared as a DMSO stock solution (FAP and PREP: 2.5 mM Z-Gly-Pro-AMC (VWR, Cat. No. I-1145.0050BA) in DMSO; DPPIV: 100 mM Gly-Pro-AMC (VWR, Cat. No. 100042-646) in DMSO), and subsequently the substrate stock solution was diluted 20-fold using the corresponding buffer mentioned above.
4) The enzyme was diluted into the appropriate assay buffer. The final concentrations of DPPIV, FAP, and PREP were […], respectively. To each required well in columns 2-10, 180 μL was added separately. Column 1 (A, B, C) was prepared with 200 μL of the appropriate assay buffer as a control. […]
7) Fluorescence was measured at λex: 380, λem: 460. […]

[2] = test system: HT1080 cell line with high FAP expression; assay: Therapeutic experiment of ^177Lu-labeled compounds in tumor-bearing mice; assay type: in vivo, Balb/c Nude mice; settings: ^177Lu-labeled compound
Protocol: Balb/c Nude tumor-bearing mice (supplier: Shanghai Alamo Pharmaceutical Technology Co., Ltd., HT1080 cell line with high FAP expression) aged approximately 6-8 weeks were randomly assigned to 13 experimental groups based on tumor volume, with 5 mice per group. Animal body weight and tumor size were measured, and administration was initiated on the grouping day starting with Group 1 (control group: normal saline). General health and appearance were observed daily after the start of the experiment. Animal body weight and tumor size were measured before each sample collection time point. Any abnormal observations detected during the entire study period were required to be recorded in the raw data.
The synthesized compounds were labeled with ^177Lu and subsequently utilized in the therapeutic assay on mouse tumor models. […] Furthermore, no significant changes in mouse body weight (FIG. 8) were observed throughout the experimental period.
• TGI^TV: Relative tumor inhibition rate (TGI^TV): TGI^TV (%)=[1−(Ti−T0)/(Vi−V0)]×100%; • (Ti: average tumor volume of the treatment group on day i of administration, TO: average tumor volume of the treatment group on day 0 of administration; Vi: average tumor volume of the solvent control group on day i of administration, V0: average tumor volume of the solvent control group on day 0 of administration) • T/C: T/C % is one of the most commonly used indicators for tumor response to treatment: T/C %=T/C*100%; • (T represents the average tumor volume of the treatment group at a specific time point; C represents the average tumor volume of the control group at a specific time point.)
The differences between the treatment groups (tumor volumes of the second, third, fourth, and fifth groups) and the control group (tumor volume of the first group) and between the tumor volumes of the first, third, fourth, and fifth groups and the tumor volume of the second group were analyzed using the two-way ANOVA Fisher's LSD test method. P-values less than 0.05 were considered statistically significant. Both statistical significance and biological significance were taken into account during the result analysis.

IC50 [1]: 10 to 100 nM
SMILES: N#C[C@@H]1CC(F)(F)CN1C(=O)CNC(=O)c1cccc2c1CCN(C(=O)CCC(=O)NCCNC(=O)CCC(C(=O)O)N1CCN(CC(=O)O)CCN(CC(=O)O)CCN(CC(=O)O)CC1)C2 (some centres unmarked) [JHH5]
therapeutic effects in mouse tumor model [2]: dose-dependent therapeutic effects
